Measured values from PubChem BioAssay (NCI).
Values joined by “and” are separate entries in the source; they are usually repeats but may differ in a detail not shown here. Equal entries are not always repeated.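 Five compound concentrations were applied to cells in 96-well plates for 48 hours; endpoints were derived by simple linear interpolation of the resulting dose-response curve. GI50 marks 50% less growth. TGI denotes the concentration required for complete inhibition of growth.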

Legend:
Assay in all cases: DTP human tumour cell line panel, 48 h
COLO 205 colon = tested on: COLO 205 colon
DLD-1 colon = tested on: DLD-1 colon
SNB-19 CNS = tested on: SNB-19 CNS
M19-MEL melanoma = tested on: M19-MEL melanoma
KM20L2 colon = tested on: KM20L2 colon
SF-268 CNS = tested on: SF-268 CNS
SF-539 CNS = tested on: SF-539 CNS
SF-295 CNS = tested on: SF-295 CNS
OVCAR-4 ovarian = tested on: OVCAR-4 ovarian
HCC-2998 colon = tested on: HCC-2998 colon

| Compound | TGI (COLO 205 colon) | TGI (DLD-1 colon) [µM] | TGI (SNB-19 CNS) | TGI (M19-MEL melanoma) | TGI (KM20L2 colon) | TGI (SF-268 CNS) | TGI (SF-539 CNS) | TGI (SF-295 CNS) [µM] | TGI (OVCAR-4 ovarian) | TGI (HCC-2998 colon) | GI50 (DLD-1 colon) | GI50 (SNB-19 CNS) | GI50 (SF-295 CNS) | GI50 (HCC-2998 colon) | GI50 (COLO 205 colon) [µM] | GI50 (OVCAR-4 ovarian) [µM] |
| --- | --- | --- | --- | --- | --- | --- | --- | --- | --- | --- | --- | --- | --- | --- | --- | --- |
| O=C1C2c3[nH]c4ccccc4c3C3CCSCC3C2C(=O)N1c1ccccc1 (stereo not given) | > 100 µM | > 100 | > 100 µM | > 100 µM | > 100 µM | > 100 µM | > 100 µM | > 100 | > 100 µM | – | – | – | – | – | – | – |
| Nc1ccc(CCN2CCN(c3cccc(C(F)(F)F)c3)CC2)cc1 | > 100 µM | > 100 | > 100 µM | > 100 µM | > 100 µM | > 100 µM | > 100 µM | > 100 | – | > 100 µM | – | – | – | – | – | – |
| Cc1c2cc[n+](C)cc2c(C)c2c1[nH]c1ccc(OC(C)C)cc12 | 3.08 µM and 2.97 µM | > 100 | 5.6 µM and 14.3 µM | 6.14 µM and 7.31 µM | 44.3 µM and 39.8 µM | 1.88 µM and 2.82 µM | 9.82 µM and 12.5 µM | – | 17.4 µM and > 45.2 µM | 9.95 µM and 20 µM | 1.91 µM and 6.02 µM | 0.776 µM and 1.91 µM | 0.231 µM and 1.7 µM | 2.87 µM and 6.45 µM | – | – |
| CC1(c2ccccc2)CC12C(=O)NC(=O)NC2=O (stereo not given) | > 100 µM | > 100 | > 100 µM | > 100 µM | > 100 µM | > 100 µM | > 100 µM | > 100 | > 100 µM | > 100 µM | – | – | – | – | – | – |
| N#C[C@]12CC3(CC[C@H]1CC1(C2)OCCO1)OCCO3 | > 100 µM | > 100 | > 100 µM | > 100 µM | > 100 µM | > 100 µM | > 100 µM | – | > 100 µM | > 100 µM | – | – | – | – | – | – |
| COc1cccc(/C=C\c2cc(OC)c(OC)c(OC)c2)c1 | 17.3 µM | > 100 | > 100 µM | > 100 µM | 1.56 µM | > 100 µM | > 100 µM | – | > 100 µM | 69.5 µM | – | – | – | – | – | – |
| Cc1ccc(C)c(NC(=O)CC2C(=O)Nc3ccccc3S2(=O)=O)c1 (stereo not given) | – | > 100 | > 100 µM | > 100 µM | > 100 µM | > 100 µM | 82.5 µM | > 100 | 38.7 µM | > 100 µM | – | – | – | – | – | – |
| Cc1ccc(C2=[N+]([O-])c3ccccc3C2=O)cc1 | > 72.8 µM | 57.2 | > 77.2 µM | > 55.4 µM | 98.6 µM | > 75.1 µM | 77.7 µM | > 72.5 | – | > 100 µM | – | – | – | – | – | – |
| CC1=C2C(=CC(C)(CO)C2O)C(=O)C(C)(O)C12CC2 (stereo not given) | 0.0115 µM | 0.0738 | 0.0422 µM | 0.0116 µM | 0.0137 µM | 0.0159 µM | 0.0152 µM | 0.00392 | 0.0131 µM | 0.00903 µM | – | – | – | – | 0.00454 | 0.00378 |
| COC1CCC2C(=O)CCCC2O1 (stereo not given) | > 100 µM | > 100 | > 100 µM | > 100 µM | > 100 µM | > 100 µM | > 100 µM | > 100 | > 100 µM | > 100 µM | – | – | – | – | – | – |
| COC(=O)C(=O)C(C(=O)C(=O)Nc1ccc([N+](=O)[O-])cc1[N+](=O)[O-])c1nc2ccc([N+](=O)[O-])cc2[nH]c1=O (stereo not given) | > 100 µM | > 100 | > 100 µM | > 100 µM | > 100 µM | > 100 µM | – | > 100 | > 100 µM | > 100 µM | – | – | – | – | – | – |
| COCC1N=C(c2ccc(OC)c(OCc3ccccc3)c2OC)O[C@H]1c1ccccc1 (stereo not given in full) | 41.8 µM | > 100 | > 100 µM | 53.8 µM | 41.1 µM | > 100 µM | 35.8 µM | 93.8 | > 100 µM | > 100 µM | – | – | – | – | – | – |
| O=C(c1ccccc1)c1ccc2cccc(O)c2n1 | > 100 µM | > 100 | > 100 µM | > 100 µM | > 100 µM | > 100 µM | > 100 µM | 52.7 | > 100 µM | > 100 µM | – | – | – | – | – | – |
| CC(C)(C)C(=O)Nc1ccccc1Br | > 100 µM | > 100 | > 100 µM | > 100 µM | > 100 µM | – | – | > 100 | > 100 µM | > 100 µM | – | – | – | – | – | – |
| O=NN(CCCl)C(=O)NCc1ccc[n+]([O-])c1 | > 100 µM | > 100 | – | > 100 µM | > 100 µM | > 100 µM | > 100 µM | > 100 | > 100 µM | > 100 µM | – | – | – | – | – | – |
| O=[N+]([O-])c1ccc(OCCNc2cccc3ccccc23)cc1 | > 100 µM | > 100 | > 100 µM | > 100 µM | > 100 µM | > 100 µM | > 100 µM | > 100 | > 100 µM | > 100 µM | – | – | – | – | – | – |
